Test results published in paper PMC3561256, “Anti-infectious and anti-inflammatory effects of peptide fragments sequentially derived from the antimicrobial peptide centrocin 1 isolated from the green sea urchin, Strongylocentrotus droebachiensis” (AMB Express, 2012).
Values joined by “and” are separate entries in the source; they are usually repeats but may differ in a detail not shown here. Equal entries are not always repeated. No end group written: not given here.

What was measured:
[1] = synthesis and antimicrobial testing of the different monomers; ref Li et al. [2010]; cited from earlier work
Source text: Invertebrates are proving to be a rich source of AMPs, possibly because of their more pronounced reliance on innate immune functions in their defence against microbial pathogens compared to vertebrates. Many of the peptides isolated from marine species are structurally unique, display significant biological activities and are therefore expected to be useful drug leads (Sperstad et al. [2011]). In a previous study, we detected broad-spectrum antibacterial activity in coelomocyte (blood cell) extracts of the green sea urchin, S. droebachiensis (Haug et al. [2002]). Subsequently, an AMP named cen ...

S. aureus (ATCC 12600) = experiment: Minimal microbicidal concentration (MMC99) assay; assay type: cell-based, Staphylococcus aureus
Experimental: (§1) All the synthesised peptides were tested for their in vitro microbicidal activity against S. aureus (American Type Culture Collection (ATCC) 12600) and P. aeruginosa (ATCC 15442) using a minimal microbicidal concentration (MMC) assay as previously described (Haversen et al. [2010]). Bacteria were cultured in 3.7% brain heart infusion (BHI) broth (Difco, BD Diagnostics, Franklin Lakes, NJ) on a shaker at 250 rpm overnight at 37°C. The culture was diluted 1:10 in fresh 3.7% BHI and incubated for two additional hours to reach log-phase growth. The bacteria were pelleted by centrifugation at 900 × g and suspended in 0.037% BHI to a concentration of 10^7 CFU/mL, estimated by measuring optical density at 600 nm (OD600). To investigate the influence of physiological conditions on microbicidal effect of the peptides, four different assay media were used: 0.037% BHI, 0.037% BHI supplemented with 85 or 150 mM sodium chloride (NaCl), and 50% heat inactivated simulated wound fluid (h.i. SWF) composed of a 50:50 mixture of 0.1% peptone (Oxoid, Basingstoke, UK) in 150 mM NaCl and fetal bovine serum (FBS; PAA Laboratories GmbH, Pasching, Austria), diluted two times in ultra pure water. The peptides were serially diluted by twofold steps from 200 to 1.56 mg/L in the assay media used, and 100 μL of the peptide solutions were mixed with 5 μL bacterial suspensions in a 96 well plate (Nunc, Roskilde, Denmark) and incubated at 37°C for two hours. An aliquot of 5 μL from each well was aspirated and added as drops onto blood agar plates (Columbia agar; Oxoid, Basingstoke, UK) supplemented with 5% defibrinated horse blood (Swedish National Veterinary Institute (SVA), Uppsala, Sweden), and the plates were incubated overnight at 37°C. All samples were processed as duplicates. The minimal test compound concentration causing ≥99% reduction of bacteria was defined as the MMC99. The concentration of the bacterial suspension used in the assay was confirmed by viable count estimation on blood agar plates (Oxoid).
(§2) CEN1 HC was further screened for microbicidal activity against a panel of microbial strains using the MMC99 assay, as described above, except using only two different assay media; 0.037% BHI and 50% h.i. SWF. The following microbial strains were tested for sensitivity: S. aureus (ATCC 12600), MRSA (ATCC 33591), Staphylococcus epidermidis (ATCC 12228), Streptococcus pyogenes (ATCC 12344), Propionibacterium acnes (ATCC 6919) Escherichia coli (ATCC 11775), P. aeruginosa (ATCC 15442), Klebsiella pneumoniae (Culture collection, University of Gothenburg (CCUG) 59413, clinical isolate resistant to penicillins, cephalosporins, aztreonam and carbapenems, with the reference strain ATCC 13883), Acinetobacter baumannii (CCUG 58437, clinical isolate resistant to tobramycin, trimsulfa, ciprofloxacin, cefotaxim, ceftazidim, meropenem, pipera/tazobactam, with the reference strain ATCC 19606) and the yeast strain Candida albicans (ATCC 64549). Mupirocin (GlaxoSmithKline) and fusidic acid (LEO Pharma) were used as comparative control antibiotics.

[2] = system: P. aeruginosa (ATCC 15442); experiment: Minimal microbicidal concentration (MMC99) assay; assay type: cell-based, Pseudomonas aeruginosa
Experimental: as §1, §2

[3] = system: TNF-α secretion from THP-1 cells; experiment: Inhibition of TNF-α secretion from LPS-stimulated THP-1 derived macrophages (ELISA); assay type: cell-based, human; settings: PMA-differentiated THP-1 cells, LPS 0.1 ng/mL, peptide added 30 min after LPS, 6 h, triplicate, IC50 ± SEM, 4-parameter fit (Origin)
Experimental: The human monocytic cell line THP-1 (ATCC TIB-202) was cultured in RPMI 1640 medium (PAA Laboratories GmbH) supplemented with 10% FBS (PAA Laboratories GmbH), 1 mM sodium pyruvate (Sigma-Aldrich, St. Louis, MO), and 20 mM 4-(2-hydroxyethyl)-1-piperazineethanesulfonic acid (HEPES; PAA Laboratories GmbH). The cell density was adjusted to 10^6 cells/mL and 100 μL of the cell suspension was added to each well of 96 well plates (Sarstedt, Nümbrecht, Germany). The cells were treated with 10 ng/mL phorbol 12-myristate 13-acetate (PMA; Sigma-Aldrich) to differentiate the monocytes into macrophage-like cells. After 48 h, the cells were stimulated by adding 0.1 ng/mL LPS into the medium specified above, except that 10% FBS was replaced with 5% h.i. FBS. The LPS concentration used was selected based on in vitro titration experiments to give a close to maximum release of cytokines into the cell culture medium over a period of six hours (data not shown). The indicated concentrations of the peptides were added 30 min after addition of LPS. After six hours of incubation, the plates were centrifuged for six minutes at 400 × g and the supernatants were collected and kept frozen at −20°C until analysed for TNF-α and IL-6 production. The cytokine levels were analysed using enzyme-linked immunosorbent assay (ELISA; R&D Systems, Minneapolis, MN).

MRSA (ATCC 33591) = assay type: in vivo; settings: rat excision wound model (MRSA or P. aeruginosa infected), topical application, experimental period
Source text: The ability of CEN1 HC and CEN1 HC (Ser) to reduce bacterial counts was estimated in an excision wound model in rat designed based on previously published studies (Gisby and Bryant [2000]; McRipley and Whitney [1976]; Rittenhouse et al. [2006]; Saymen et al. [1972]). Briefly, female Sprague–Dawley rats (200–250 g, Charles River Laboratories, Sulzfeldt, Germany) were housed at the Laboratory of Experimental Biomedicine, Gothenburg, Sweden. They were kept in a 12-h light–dark cycle and were cared for in accordance with regulations for the protection of laboratory animals. All animal experiments were performed after prior approval from the local Ethics Committee for Animal Studies at the Administrative Court of Appeals in Gothenburg, Sweden. The rats were acclimatised in cages for a minimum of five days before surgery, with four rats in each cage. They had free access to water and pellets (Lab For, Lantmännen, Sweden). The rats were anaesthetised during the whole experiment and the anaesthesia was induced by an intra-peritoneal injection of a mixture of fentanyl (272 μg/kg; B. Braun Melsungen AG, Melsungen, Germany) and medetomidine hydrochloride (545 μg/kg; Domitor, Orion Pharma Animal Health AB, Sollentuna, Sweden). The backs of the rats were shaved and swabbed with 70% chlorhexidine alcohol (Fresenius Kabi AB, Uppsala, Sweden). […] Plates containing 30–300 CFU were counted. […]

[4] = Table 2 screen, medium 0.037% BHI + 85 mM NaCl, 2 h at 37°C, up to 200 mg/L, duplicates, maximum of at least two independent experiments
[5] = Table 2 screen, medium 0.037% BHI + 150 mM NaCl, 2 h at 37°C, up to 200 mg/L, duplicates, maximum of at least two independent experiments
[6] = Table 2 screen, medium 50% heat inactivated simulated wound fluid, 2 h at 37°C, up to 200 mg/L, duplicates, maximum of at least two independent experiments

Substance	Antimicrobial activity of the synthesised monomers of centrocin 1 [1]	S. aureus MMC99, 0.037% BHI + 85 mM NaCl (S. aureus (ATCC 12600); [4]) [mg/L]	S. aureus MMC99, 0.037% BHI + 150 mM NaCl (S. aureus (ATCC 12600); [5]) [mg/L]	S. aureus MMC99, 0.037% BHI (S. aureus (ATCC 12600); Table 2 screen, medium 0.037% BHI, ≥99% reduction of bacteria, 2 h at 37°C, tested up to 200 mg/L, duplicates, maximum value from at least two independent experiments) [mg/L]	S. aureus MMC99, 50% SWF (S. aureus (ATCC 12600); [6])	S. aureus MMC99, 0.037% BHI with 85 mM or 150 mM NaCl (S. aureus (ATCC 12600); text summary over both NaCl concentrations of Table 2a) [mg/L]	P. aeruginosa MMC99, 0.037% BHI + 85 mM NaCl [2, 4] [mg/L]	P. aeruginosa MMC99, 0.037% BHI + 150 mM NaCl [2, 5] [mg/L]	P. aeruginosa MMC99, 0.037% BHI ([2]; Table 2 screen, medium 0.037% BHI, 2 h at 37°C, up to 200 mg/L, duplicates, maximum of at least two independent experiments) [mg/L]	P. aeruginosa MMC99, 50% SWF [2, 6]	P. aeruginosa MMC99, 0.037% BHI with 85 mM or 150 mM NaCl ([2]; text summary over both NaCl concentrations of Table 2b, compared to 0.037% BHI only)	IC50, TNF-α secretion [3] [µg/mL]	Animal death or local reactions in connection to the application of the test article (MRSA (ATCC 33591))
GW(Br)FKKTFHKVSHAVKSGIHAGQRGCSALGF [CEN1 HC-Br, heavy chain of centrocin 1, 30 residues, brominated tryptophan in position 2]	equally active as the original dimeric peptide	25	50	25	25.0 to 50.0 mg/L and 50 mg/L	25.0 to 50.0	12.5	25	25	100.0 mg/L and 100 mg/L	no reduction in effect	~4.0	–
GWFKKTFHKVSHAVKSGIHAGQRGCSALGF [CEN1 HC]	–	–	–	–	–	–	–	–	–	–	–	–	No animal death or local reactions
